In this assay the target is T1, human TAS1R2-I486V/TAS1R3-WT (Homo sapiens, UniProt Q7RTX0+Q8TE23, I486V).
T1 construct: expressed in transfected cells; host or cells: HEK293T-Gα16gust44
T1 sequence (Q8TE23 20-839 I486V): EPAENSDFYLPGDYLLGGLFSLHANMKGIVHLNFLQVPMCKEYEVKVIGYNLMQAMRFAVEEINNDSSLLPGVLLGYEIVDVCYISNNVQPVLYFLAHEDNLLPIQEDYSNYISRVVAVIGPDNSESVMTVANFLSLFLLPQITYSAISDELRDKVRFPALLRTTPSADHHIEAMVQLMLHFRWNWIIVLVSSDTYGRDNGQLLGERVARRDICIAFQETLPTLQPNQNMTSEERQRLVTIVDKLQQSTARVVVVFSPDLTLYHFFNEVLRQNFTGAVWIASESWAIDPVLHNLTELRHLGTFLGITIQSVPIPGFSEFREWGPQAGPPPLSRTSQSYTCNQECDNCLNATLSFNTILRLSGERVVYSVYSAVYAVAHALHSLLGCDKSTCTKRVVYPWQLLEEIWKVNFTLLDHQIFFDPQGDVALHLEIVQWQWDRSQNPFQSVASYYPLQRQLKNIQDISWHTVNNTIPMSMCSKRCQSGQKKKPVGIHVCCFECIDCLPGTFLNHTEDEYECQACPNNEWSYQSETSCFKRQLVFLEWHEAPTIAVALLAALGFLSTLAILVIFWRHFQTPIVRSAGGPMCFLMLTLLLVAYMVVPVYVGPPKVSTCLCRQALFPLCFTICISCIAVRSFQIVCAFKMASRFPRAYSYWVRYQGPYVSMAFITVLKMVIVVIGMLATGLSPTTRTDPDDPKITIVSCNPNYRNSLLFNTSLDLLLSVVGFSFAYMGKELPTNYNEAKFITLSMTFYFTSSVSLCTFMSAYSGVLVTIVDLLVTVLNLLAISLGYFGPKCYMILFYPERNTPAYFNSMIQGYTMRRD
T1 sequence (Q7RTX0 21-852): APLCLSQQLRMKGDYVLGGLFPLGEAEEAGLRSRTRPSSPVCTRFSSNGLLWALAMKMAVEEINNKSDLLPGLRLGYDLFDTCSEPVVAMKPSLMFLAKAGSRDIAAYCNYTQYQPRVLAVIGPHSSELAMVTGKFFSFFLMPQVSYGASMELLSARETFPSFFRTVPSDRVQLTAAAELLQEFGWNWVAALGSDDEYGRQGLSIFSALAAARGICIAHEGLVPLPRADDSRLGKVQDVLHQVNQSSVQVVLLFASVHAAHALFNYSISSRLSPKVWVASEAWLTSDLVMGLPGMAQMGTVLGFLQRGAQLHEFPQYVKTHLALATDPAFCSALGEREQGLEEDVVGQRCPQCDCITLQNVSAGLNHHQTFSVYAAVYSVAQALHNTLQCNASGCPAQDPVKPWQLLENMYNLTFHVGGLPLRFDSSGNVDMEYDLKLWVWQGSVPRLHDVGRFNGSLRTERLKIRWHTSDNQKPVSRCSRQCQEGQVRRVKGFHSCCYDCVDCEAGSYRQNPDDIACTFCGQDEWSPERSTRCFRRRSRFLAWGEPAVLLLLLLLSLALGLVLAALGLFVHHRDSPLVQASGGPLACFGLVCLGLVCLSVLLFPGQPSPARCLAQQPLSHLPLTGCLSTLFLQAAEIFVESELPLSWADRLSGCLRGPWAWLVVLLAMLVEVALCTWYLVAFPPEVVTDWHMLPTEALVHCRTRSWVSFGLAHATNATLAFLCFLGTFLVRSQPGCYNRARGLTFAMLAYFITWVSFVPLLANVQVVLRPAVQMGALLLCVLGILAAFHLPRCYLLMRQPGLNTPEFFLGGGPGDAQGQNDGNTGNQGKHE
The assay can be described thus: Calcium mobilisation assay, TAS1R2 variant I486V with TAS1R3-WT. To be noted: for Max ΔF/F0: maximal signal amplitude. The assay is classed as cell-based. An excerpt:
The coding sequences for TAS1R2 and TAS1R3 were commercially synthesised, and the human codon was optimised for expression in human cells. The coding sequences of human TAS1R2 and TAS1R3 were subcloned and inserted into the mammalian expression vectors pcDNA6/myc-HisA and pcDNA4/myc-HisA (Invitrogen; Thermo Fisher Scientific; Illkirch, France) between the EcoRI and NotI restriction sites, generating the plasmids pcDNA6-TAS1R2 and pcDNA4-TAS1R3, respectively. To increase protein expression in mammalian cells, an upstream start codon was used, which was a sequence called MAX, corresponding to the QBI SP163 element also described in pcDNA4-HisMax (Invitrogen; Thermo Fisher Scientific; Illkirch, France). To measure the expression level of the receptor by immunohistochemistry, we used the FLAG sequence ([…]) in the C-terminal position, which encodes the FLAG tag epitope. SNP variants of TAS1R2 and TAS1R3 were constructed based on […], respectively, using site-directed mutagenesis (Genewiz; Leipzig, Germany).
The HEK293T cells were kindly provided by Jay P. Slack (Givaudan Flavors Corporation; Cincinnati, OH, USA). HEK293T cells stably transfected with Gα16gust44 [43, 67] were seeded in poly-D-lysine-coated clear-bottom black 96-well plates (0.35 × 10^5 cells/well) in high-glucose DMEM supplemented with 2 mM GlutaMAX, 10% dialysed foetal bovine serum with penicillin/streptomycin and G418 (400 μg/mL) at 37 °C and 6.3% CO2 in a humidified atmosphere as previously reported. […] As a negative control, HEK293T cells were mock-transfected with the empty expression vector. After a further 24 h of incubation, the HEK293T cells were washed with C1 buffer (130 mM NaCl, 5 mM KCl, 10 mM HEPES pH 7.4 and 2 mM CaCl2). The 96-well plates containing the cells were then stimulated with sweet-tasting compounds. […] Different concentration ranges were tested depending on the sweet compound injected. The Ca^2+ changes were expressed as fractional changes in fluorescent light intensity: ΔF/F = (F − F0)/F0, where F was the fluorescent light intensity at each point, and F0 was the value of emitted fluorescent light prior to stimulus application. To calculate dose–response relationships, the changes in fluorescence upon stimulus application were averaged, mock-subtracted and baseline-corrected. The dose–response data obtained were adjusted using a 4-parameter logistic equation. The half-maximal effective concentrations (EC50 values) and maximal signal amplitudes were calculated using SigmaPlot software (version 15.0) (Systat Software; San Jose, CA, USA).
For in vitro calcium mobilisation assay performed on hTAS1R2-SNPs, hTAS1R3-SNPs and mTAS1R3-I60T, 6 to 7 concentrations were tested for each sweet compound, plus buffer alone. All concentration–receptor combinations were measured in duplicate, and each experiment was repeated at least 4 times (8 wells/concentration). Results were expressed for each concentration as ΔF/F mean ± SEM and represented as dose–response curves.
(In general: A change in cytosolic calcium serves as a functional read-out for many receptors and channels.)

By EC50 is commonly meant the concentration needed to bring the measured effect to its halfway point.

No end group written: not given here.

Take `OC[C@H]1O[C@H](O[C@]2(CCl)O[C@H](CCl)[C@@H](O)[C@@H]2O)[C@H](O)[C@@H](O)[C@H]1Cl` [Sucralose]: the EC50 is 54 ± 5 µM, the “R1 = Variant EC50/WT EC50” value is listed as 0.6 and the “Max ΔF/F0” value worked out at 0.69 ± 0.02.
The corresponding values for `C[C@H](CC[C@@H](O[C@@H]1O[C@H](CO[C@@H]2O[C@H](CO)[C@@H](O)[C@H](O)[C@H]2O)[C@@H](O)[C@H](O)[C@H]1O[C@@H]1O[C@H](CO)[C@@H](O)[C@H](O)[C@H]1O)C(C)(C)O)[C@H]1CC[C@@]2(C)[C@@H]3CC=C4[C@@H](CC[C@H](O[C@@H]5O[C@H](CO[C@@H]6O[C@H](CO)[C@@H](O)[C@H](O)[C@H]6O)[C@@H](O)[C@H](O)[C@H]5O)C4(C)C)[C@]3(C)[C@H](O)C[C@]12C` [Mogroside V, mogroside V] are 20.1 ± 0.9 µM, 1.2 and 1.39 ± 0.02.
The corresponding values for `COC(=O)[C@H](Cc1ccccc1)NC(=O)[C@H](CC(=O)O)NCCC(C)(C)C` [Neotame] are 0.71 ± 0.06 µM, 0.8 and 0.61 ± 0.01.
Take “brazzein (QDKCKKVYENYPVSKCQLANQCNYDCKLDKHARSGECFYDEKRNLQCICDYCEY; ends and bridges not checked; cysteine pairing not given here; UniProt P56552 1-54, looked up) [sweet-tasting protein obtained by recombinant production using the yeast Pichia pastoris]”: the “R1 = Variant EC50/WT EC50” value is 1.1 and the “Max ΔF/F0” value turned out to be 1.19 ± 0.03.
Turning to `C=C(C)[C@@H]1CC=C(/C=N/O)CC1` [Perillartine, perillartine], the EC50 was 17.7 ± 1.2 µM, the “R1 = Variant EC50/WT EC50” value is 1.0 and the “Max ΔF/F0” value turned out to be 1.49 ± 0.04.
The corresponding values for `CC1=CC(=O)NS(=O)(=O)O1` [Acesulfame K, acesulfame K] are 778 ± 108 µM, 1.1 and 0.46 ± 0.03.
The matching figures for `C=C1C[C@@]23CC[C@H]4[C@@](C)(CCC[C@@]4(C)C(=O)O[C@@H]4O[C@H](CO)[C@@H](O)[C@H](O[C@@H]5O[C@H](CO)[C@@H](O)[C@H](O)[C@H]5O)[C@H]4O[C@@H]4O[C@H](CO)[C@@H](O)[C@H](O)[C@H]4O)[C@@H]2CC[C@]1(O[C@@H]1O[C@H](CO)[C@@H](O)[C@H](O[C@@H]2O[C@H](CO)[C@@H](O)[C@H](O)[C@H]2O)[C@H]1O[C@@H]1O[C@H](CO)[C@@H](O)[C@H](O)[C@H]1O)C3` [Rebaudioside M, rebaudioside M]: 17.6 ± 0.6 µM, 1.0 and 1.20 ± 0.01.
Take `O=S(=O)(O)NC1CCCCC1` [Cyclamate, cyclamate]: the EC50 was 1880 ± 36 µM.
Regarding `COc1ccc(CCC(=O)c2c(O)cc(O[C@@H]3O[C@H](CO)[C@@H](O)[C@H](O)[C@H]3O[C@@H]3O[C@@H](C)[C@H](O)[C@@H](O)[C@H]3O)cc2O)cc1O` [NHDC, neohesperidin dihydrochalcone], the EC50 was found to be 92.6 ± 5.2 µM, the “R1 = Variant EC50/WT EC50” value was determined as 1.2 and the “Max ΔF/F0” value is 0.92 ± 0.02.
thaumatin: the “R1 = Variant EC50/WT EC50” value is given as 1.4 and the “Max ΔF/F0” value turned out to be 1.21 ± 0.02.

B1: thaumatin (protein)
chain: ATFEIVNRCSYTVWAAASKGDAALDAGGRQLNSGESWTINVEPGTKGGKIWARTDCYFDDSGSGICKTGDCGGLLRCKRFGRPPTTLAEFSLNQYGKDYIDISNIKGFNVPMDFSPTTRGCRGVRCAADIVGQCPAKLKAPGGGCNDACTVFQTSEYCCTTGKCGPTEYSRFFKRLCPDAFSYVLDKPTTVTCPGSSNYRVTFCPTA
modifications: Eight disulfides
notes: sweet-tasting plant protein, E957
For B1, the EC50 was 10.5 ± 0.3 µM.

The values are drawn from article PMC11945486, “TAS1R2/TAS1R3 Single-Nucleotide Polymorphisms Affect Sweet Taste Receptor Activation by Sweeteners: The SWEET Project” (Nutrients, 2025).
